Data: patent US20090029992A1, “SUBSTITUTED PYRAZOLE COMPOUNDS” (priority 2007, published 2009)

Assays:
recombinant Aurora A = molecular target: T1, recombinant Aurora A (Homo sapiens, UniProt O14965); assay: Aurora A (Aurora 2) inhibition assay, Z'-Lyte kinase assay; type: biochemical; conditions: ATP 10 μM, 1 h
T1 construct: purchased Upstate, Lake Placid, N.Y
T1 sequence (O14965 1-403): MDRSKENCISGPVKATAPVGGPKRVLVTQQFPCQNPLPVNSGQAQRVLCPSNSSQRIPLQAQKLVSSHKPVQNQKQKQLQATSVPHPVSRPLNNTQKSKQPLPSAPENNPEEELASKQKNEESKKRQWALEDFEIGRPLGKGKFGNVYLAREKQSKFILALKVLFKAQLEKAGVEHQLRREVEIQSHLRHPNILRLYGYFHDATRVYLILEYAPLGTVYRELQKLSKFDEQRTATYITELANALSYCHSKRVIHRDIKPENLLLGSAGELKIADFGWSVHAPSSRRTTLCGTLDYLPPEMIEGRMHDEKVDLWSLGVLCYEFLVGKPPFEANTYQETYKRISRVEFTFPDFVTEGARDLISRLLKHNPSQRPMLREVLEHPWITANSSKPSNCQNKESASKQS
How it was run: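 Z'-Lyte FRET assay: Aurora A (200-500 ng/mL final), Ser/Thr 1 peptide (2 μM) and ATP (10 μM) in 50 mM HEPES pH 7.5, 10 mM MgCl2, 5 mM EGTA, 0.05% Brij-35, 2 mM DTT, 1 h at room temperature. Coumarin/fluorescein emission ratio converted to percent phosphorylation; dose-response curves plotted.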

Aurora B kinase = molecular target: T2, Aurora B kinase (Homo sapiens, UniProt Q96GD4); assay: Aurora B (Aurora 1) inhibition assay; type: biochemical; conditions: ATP 50 μM, 16 h
T2 construct: purchased BPS Biosciences, San Diego, Calif
Procedure: Compounds were tested for their potency against recombinant Aurora A (Upstate, Lake Placid, N.Y.) using the PanVera Z′-Lyte kinase assay kit—Ser/Thr 1 peptide (Invitrogen, Carlsbad, Calif.). Assays were carried out in kinase assay buffer (50 mM HEPES, pH 7.5, 10 mM MgCl2, 5 mM EGTA, 0.05% Brij-35, 2 mM DTT). Test compounds were initially dissolved in DMSO at 100× the highest tested concentration, then serially diluted to 4× test concentrations in kinase assay buffer. Next, Aurora A (final concentration 200-500 ng/mL), Z′-Lyte Ser/Thr 1 peptide (final concentration 2 μM) and ATP (final concentration 10 μM) were added according to the manufacturer's instructions. Assays were carried out in half-area 96-well white polystyrene assay plates (Corning, Corning, N.Y.) in a final volume of 20 μl. The reaction was allowed to proceed for 1 h at room temperature in the dark, at which point the development reagent and stop reagent were added according to the manufacturer's instructions. Coumarin (Ex. 400 nm, Em. 465 nm) and fluorescein (Ex. 400 nm, Em. 565 nm) fluorescence values were measured on a SpectraFluor Plus plate reader (Tecan, Durham, N.C.). The emission ratio (coumarin/fluorescein) was determined and used to calculate the percent phosphorylation for each well. Wells containing substrate but no kinase and wells containing a phosphopeptide control were used to set 0% and 100% phosphorylation values, respectively. Typically 20-40% of the substrate was phosphorylated in wells without inhibitor. Dose-response curves of relative Aurora A activity vs. inhibitor concentration were plotted with Grafit (Erithacus Software, Horley, Surrey, UK).
Assays for Aurora B kinase inhibition were carried out similarly to those for Aurora A kinase (see above) with the following modifications. Aurora B kinase (BPS Biosciences, San Diego, Calif.) was used as the enzyme, at a concentration was 2.5 μg/mL. The ATP concentration was 50 μM, and the kinase reaction was allowed to proceed for 16 h. Sodium orthovanadate (20 μM) was added to the buffer to inhibit contaminating phosphatases.

HCT116 cells = assay: Whole cell cytotoxicity assay, Sulforhodamine B; type: cell-based; conditions: Homo sapiens, HCT-116, HCT116, 96 hours incubation, SRB; for GI50: read-out: GI50 HCT116 cell growth; for IC50: read-out: IC50 values in this assay (HCT116 cell growth)
How it was run: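 HCT116 cells (500/well) in DMEM/10% FBS/2 mM glutamine were preincubated 24 h, then exposed to compound for 96 h at 37 °C, 5% CO2, in duplicate. Cells were fixed with TCA and stained with sulforhodamine B (A570). GI50, TGI and LC50 were derived relative to a time-zero plate and an untreated control.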

[1] = group with IC50 greater than 100 nM

T2 sequence (Q96GD4 whole entry): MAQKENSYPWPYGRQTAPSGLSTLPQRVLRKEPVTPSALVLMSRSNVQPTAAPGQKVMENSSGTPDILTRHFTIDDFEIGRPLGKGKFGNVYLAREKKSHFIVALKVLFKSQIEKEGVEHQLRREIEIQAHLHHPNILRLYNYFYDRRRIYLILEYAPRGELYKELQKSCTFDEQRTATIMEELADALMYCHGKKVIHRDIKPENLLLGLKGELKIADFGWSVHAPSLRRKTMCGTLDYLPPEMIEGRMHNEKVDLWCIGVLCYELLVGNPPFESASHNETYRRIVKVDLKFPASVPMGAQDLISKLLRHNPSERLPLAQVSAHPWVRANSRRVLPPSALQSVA

SMILES	IC50 (recombinant Aurora A)	IC50 (Aurora B kinase)	IC50 (recombinant Aurora A; [1])	GI50 (HCT116 cells)	IC50 (HCT116 cells)
CC(=O)c1cccc(-c2nc(Nc3cc(C)[nH]n3)cc(N3CCN(C)CC3)n2)c1 [Example 165, 1-(3-(4-(5-methyl-1H-pyrazol-3-ylamino)-6-(4-methylpiperazin-1-yl)pyrimidin-2-yl)phenyl)ethanone]	≤ 100 nM	≤ 1000 nM		≤ 1000 nM	
COC(=O)c1cccc(-c2nc(Nc3cc(C)[nH]n3)cc(N3CCN(C)CC3)n2)c1 [Example 166, methyl 3-(4-(5-methyl-1H-pyrazol-3-ylamino)-6-(4-methylpiperazin-1-yl)pyrimidin-2-yl)benzoate]	≤ 100 nM	≤ 1000 nM		≤ 1000 nM	
Cc1cc(Nc2cc(N3CCN(C)CC3)nc(-c3cc(F)cc(F)c3)n2)n[nH]1 [Example 170, 2-(3,5-difluorophenyl)-N-(5-methyl-1H-pyrazol-3-yl)-6-(4-methylpiperazin-1-yl)pyrimidin-4-amine]	≤ 100 nM	≤ 1000 nM		≤ 1000 nM	
CCOc1cccc(-c2nc(Nc3cc(C)[nH]n3)cc(N3CCN(C)CC3)n2)c1 [Example 190, 2-(3-ethoxyphenyl)-N-(5-methyl-1H-pyrazol-3-yl)-6-(4-methylpiperazin-1-yl)pyrimidin-4-amine]	≤ 100 nM	≤ 1000 nM		≤ 1000 nM	
COc1ccc(F)c(-c2nc(Nc3cc(C)[nH]n3)cc(N3CCN(C)CC3)n2)c1 [Example 197, 2-(2-fluoro-5-methoxyphenyl)-N-(5-methyl-1H-pyrazol-3-yl)-6-(4-methylpiperazin-1-yl)pyrimidin-4-amine]	≤ 100 nM			≤ 1000 nM	
Cc1cc(Nc2cc(N3CCN(C)CC3)nc(-c3cccc(F)c3F)n2)n[nH]1 [Example 200]			≤ 1000 nM	≤ 1000 nM	
Cc1ccc(C)c(-c2nc(Nc3cc(C)[nH]n3)cc(N3CCN(C)CC3)n2)c1 [Example 201, 2-(2,5-dimethylphenyl)-N-(5-methyl-1H-pyrazol-3-yl)-6-(4-methylpiperazin-1-yl)pyrimidin-4-amine]			≤ 1000 nM		1000 to 10000 nM
Cc1cc(Nc2cc(N3CCN(C)CC3)nc(-c3cccc4ccoc34)n2)n[nH]1 [Example 203, 2-(benzofuran-7-yl)-N-(5-methyl-1H-pyrazol-3-yl)-6-(4-methylpiperazin-1-yl)pyrimidin-4-amine]	≤ 100 nM				1000 to 10000 nM
Cc1cc(Nc2cc(NC3CCOCC3)nc(-c3cccc4ccoc34)n2)n[nH]1 [Example 204, 2-(benzofuran-7-yl)-N^4-(5-methyl-1H-pyrazol-3-yl)-N^6-(tetrahydro-2H-pyran-4-yl)pyrimidine-4,6-diamine]			≤ 1000 nM		1000 to 10000 nM
Cc1cc(Nc2cc(N(C)CCN(C)C)nc(-c3cccc4ccoc34)n2)n[nH]1 [Example 205, 2-(benzofuran-7-yl)-N^4-(2-(dimethylamino)ethyl)-N^4-methyl-N^6-(5-methyl-1H-pyrazol-3-yl)pyrimidine-4,6-diamine]			≤ 1000 nM		1000 to 10000 nM

More lines, main results first:

IC50 (recombinant Aurora A)	IC50 (Aurora B kinase)	IC50 (recombinant Aurora A; [1])	SMILES	GI50 (HCT116 cells)	IC50 (HCT116 cells)
≤ 100 nM	≤ 1000 nM		Cc1cc(Nc2cc(N3CCN(C)CC3)nc(-c3ccccc3)n2)n[nH]1 [Compound 8, N-(5-methyl-1H-pyrazol-3-yl)-6-(4-methylpiperazin-1-yl)-2-phenyl pyrimidin-4-amine]	≤ 1000 nM	
≤ 100 nM	≤ 1000 nM		Cc1cc(Nc2cc(NC3CCOCC3)nc(-c3cc4ccccc4o3)n2)n[nH]1 [Compound 15, 2-(benzofuran-2-yl)-N^4-(tetrahydro-2H-pyran-4-yl)-N^6-(5-methyl-1H-pyrazol-3-yl)-pyrimidine-4,6-diamine]	≤ 1000 nM	
≤ 100 nM	≤ 1000 nM		Cc1cc(Nc2cc(N3CCN(C)CC3)nc(-c3cccc(-c4ccccc4)c3)n2)n[nH]1 [Compound 16, 2-(biphenyl-3-yl)-N-(5-methyl-1H-pyrazol-3-yl)-6-(4-methylpiperazin-1-yl)pyrimidin-4-amine]	≤ 1000 nM	
≤ 100 nM	≤ 1000 nM		Cc1cc(Nc2cc(NC3CCOCC3)nc(-c3cccc(F)c3)n2)n[nH]1 [Compound 20, 2-(3-fluorophenyl)-N^4-(5-methyl-1H-pyrazol-3-yl)-N^6-(tetrahydro-2H-pyran-4-yl)pyrimidine-4,6-diamine]		1000 to 10000 nM
≤ 100 nM	≤ 1000 nM		Cc1cc(Nc2cc(N3CCN(C)CC3)nc(-c3cccc(F)c3)n2)n[nH]1 [Compound 33, 2-(3-fluorophenyl)-N-(5-methyl-1H-pyrazol-3-yl)-6-(4-methylpiperazin-1-yl)pyrimidin-4-amine]	≤ 1000 nM	
≤ 100 nM	≤ 1000 nM		Cc1cc(Nc2cc(N3CCN(C)CC3)nc(-c3cccc(Cl)c3)n2)n[nH]1 [Compound 36, 2-(3-chlorophenyl)-N-(5-methyl-1H-pyrazol-3-yl)-6-(4-methylpiperazin-1-yl)pyrimidin-4-amine]	≤ 1000 nM	
≤ 100 nM	≤ 1000 nM		COc1cccc(-c2nc(Nc3cc(C)[nH]n3)cc(N3CCN(C)CC3)n2)c1 [Compound 42, 2-(3-methoxyphenyl)-N-(5-methyl-1H-pyrazol-3-yl)-6-(4-methylpiperazin-1-yl)pyrimidin-4-amine]	≤ 1000 nM	
≤ 100 nM	≤ 1000 nM		Cc1cc(Nc2cc(NC3CCOCC3)nc(-c3cccc(N(C)C)c3)n2)n[nH]1 [Compound 74, 2-(3-(dimethylamino)phenyl)-N^4-(5-methyl-1H-pyrazol-3-yl)-N^6-(tetrahydro-2H-pyran-4-yl)pyrimidine-4,6-diamine]	≤ 1000 nM	
≤ 100 nM	≤ 1000 nM		Cc1cc(Nc2cc(NC3CCOCC3)nc(-c3ccc4c(c3)OCCO4)n2)n[nH]1 [Example 130, 2-(2,3-dihydrobenzo[b][1,4]dioxin-6-yl)-N^4-(5-methyl-1H-pyrazol-3-yl)-N^6-(tetrahydro-2H-pyran-4-yl)pyrimidine-4,6-diamine]		1000 to 10000 nM
≤ 100 nM	≤ 1000 nM		Cc1cc(Nc2cc(N3CCN(C)CC3)nc(-c3ccc4c(c3)OCCO4)n2)n[nH]1 [Example 137, 2-(2,3-dihydrobenzo[b][1,4]dioxin-6-yl)-N-(5-methyl-1H-pyrazol-3-yl)-6-(4-methylpiperazin-1-yl)pyrimidin-4-amine]	≤ 1000 nM	
≤ 100 nM	≤ 1000 nM		Cc1cc(Nc2cc(N3CCN(C)CC3)nc(-c3ccc4c(c3)OCO4)n2)n[nH]1 [Example 139, 2-(benzo[d][1,3]dioxol-5-yl)-N-(5-methyl-1H-pyrazol-3-yl)-6-(4-methylpiperazin-1-yl)pyrimidin-4-amine]	≤ 1000 nM	
≤ 100 nM	≤ 1000 nM		Cc1cc(Nc2cc(N3CCN(C)CC3)nc(-c3cccc([N+](=O)[O-])c3)n2)n[nH]1 [Example 162, N-(5-methyl-1H-pyrazol-3-yl)-6-(4-methylpiperazin-1-yl)-2-(3-nitrophenyl)pyrimidin-4-amine]	≤ 1000 nM	
≤ 100 nM	≤ 1000 nM		Cc1cc(Nc2cc(N3CCN(C)CC3)nc(-c3cccc(C#N)c3)n2)n[nH]1 [Example 163, 3-(4-(5-methyl-1H-pyrazol-3-ylamino)-6-(4-methylpiperazin-1-yl)pyrimidin-2-yl)benzonitrile]	≤ 1000 nM	
